In the first test the target is T1, mouse GnRH receptor (Mus musculus, UniProt Q01776).
T1 construct: expressed in transfected cells; host or cells: 293 cells
T1 sequence (Q01776 1-327): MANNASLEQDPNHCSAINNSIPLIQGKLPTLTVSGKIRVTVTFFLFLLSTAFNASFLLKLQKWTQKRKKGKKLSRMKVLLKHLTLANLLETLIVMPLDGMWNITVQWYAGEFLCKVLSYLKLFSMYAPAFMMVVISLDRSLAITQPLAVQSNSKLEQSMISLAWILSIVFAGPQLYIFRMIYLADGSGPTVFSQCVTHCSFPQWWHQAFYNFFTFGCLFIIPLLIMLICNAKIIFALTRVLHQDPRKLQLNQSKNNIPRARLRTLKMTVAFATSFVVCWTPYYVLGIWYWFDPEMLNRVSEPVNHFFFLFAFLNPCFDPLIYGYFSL
The test can be described thus: Radioligand binding, 125I-GnRH-A, 293 cells expressing mouse GnRH receptors. The settings on record: 10 uM; read-out: % Inhib. @ 10 uM mGnRH. In a few lines:
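Bound label captured on 0.1% polyethyleneimine-treated GF/C filters, washed three times with PBS, counted. IC50 derived; identical set-up for every species.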
Regarding `CCN(CC)CCCC(C)N(Cc1ccc(F)cc1)C(=O)c1ccc(Cc2cc3c(cc2C)C(C)(C)CCC3(C)C)o1` (stereo not shown), the inhibition at 10 µM was 102%.

`Cc1cc2c(cc1Cc1ccc(C(=O)N(CCCc3ccccc3)Cc3ccc(Oc4ccccc4)cc3)o1)C(C)(C)CCC2(C)C`: the inhibition at 10 µM worked out at 17%.

As for `Cc1cc2c(cc1Cc1ccc(C(=O)NCC3CC3)o1)C(C)(C)CCC2(C)C`, the inhibition at 10 µM was determined as 86%.

On to `Cc1ccc(C(C)NC(=O)c2ccc(Cc3cc4c(cc3C)C(C)(C)CCC4(C)C)o2)cc1` (stereo not shown), for which the inhibition at 10 µM was 97%.

Turning to `CCCCN(CCC#N)C(=O)c1ccc(Cc2cc3c(cc2C)C(C)(C)CCC3(C)C)o1`, the inhibition at 10 µM worked out at 87%.

On to `Cc1cc2c(cc1Cc1ccc(C(=O)N(C)C3CCCC3)o1)C(C)(C)CCC2(C)C`, for which the inhibition at 10 µM was determined as 100%.

With `Cc1cc2c(cc1Cc1ccc(C(=O)NC[C@@H](C)c3ccccc3)o1)C(C)(C)CCC2(C)C`, the inhibition at 10 µM was determined as 70%.

Turning to `Cc1cc2c(cc1Cc1ccc(C(=O)N3CCN(C4Nc5ccccc5Oc5ccc(Cl)cc54)CC3)o1)C(C)(C)CCC2(C)C` (stereo not shown), the inhibition at 10 µM worked out at 5%.

Take `Cc1cc2c(cc1Cc1ccc(C(=O)N(CCC#N)CC3CCCO3)o1)C(C)(C)CCC2(C)C` (stereo not shown): the inhibition at 10 µM turned out to be 95%.

In the case of `CCCN(CCC#N)C(=O)c1ccc(Cc2cc3c(cc2C)C(C)(C)CCC3(C)C)o1`, the inhibition at 10 µM amounted to 94%.

As to `Cc1cc2c(cc1Cc1ccc(C(=O)N(C)CCC(O)c3ccccc3)o1)C(C)(C)CCC2(C)C` (stereo not shown), the inhibition at 10 µM was found to be 99%.

Regarding `CCN(CCCCO)C(=O)c1ccc(Cc2cc3c(cc2C)C(C)(C)CCC3(C)C)o1`, the inhibition at 10 µM turned out to be 94%.

For the molecule `Cc1cc2c(cc1Cc1ccc(C(=O)N3CCCC(C)C3)o1)C(C)(C)CCC2(C)C` (stereo not shown), the inhibition at 10 µM was 97%.

As for `CCN(Cc1ccccc1)C(=O)c1ccc(Cc2cc3c(cc2C)C(C)(C)CCC3(C)C)o1`, the inhibition at 10 µM turned out to be 86%.

As to `Cc1cc2c(cc1Cc1ccc(C(=O)N(Cc3cccc(Cl)c3)Cc3cccc(Cl)c3)o1)C(C)(C)CCC2(C)C`, the inhibition at 10 µM turned out to be 17%.

On to `CCN(CC)CCCCNC(=O)c1ccc(Cc2cc3c(cc2C)C(C)(C)CCC3(C)C)o1`, for which the inhibition at 10 µM worked out at 101%.

Consider `CCN(CC)CCCN(CCCN(CC)CC)C(=O)c1ccc(Cc2cc3c(cc2C)C(C)(C)CCC3(C)C)o1`, for which the inhibition at 10 µM was 69%.

As for `CCN(CC)CCCN(C)C(=O)c1ccc(Cc2cc3c(cc2C)C(C)(C)CCC3(C)C)o1`, the inhibition at 10 µM worked out at 92%.

Turning to `Cc1cc2c(cc1Cc1ccc(C(=O)N3CCN(C(C)c4ccccc4)CC3)o1)C(C)(C)CCC2(C)C` (stereo not shown), the inhibition at 10 µM was 91%.

Consider `Cc1cc2c(cc1Cc1ccc(C(=O)N3CCN(C(C)C)CC3)o1)C(C)(C)CCC2(C)C`, for which the inhibition at 10 µM turned out to be 100%.

Take `Cc1cc2c(cc1Cc1ccc(C(=O)N3CCN(c4ccc(OCc5ccccc5)cc4)CC3)o1)C(C)(C)CCC2(C)C`: the inhibition at 10 µM came out at 44%.

Take `Cc1cc2c(cc1Cc1ccc(C(=O)N(CC#N)CC#N)o1)C(C)(C)CCC2(C)C`: the inhibition at 10 µM amounted to 64%.

With `Cc1cc2c(cc1Cc1ccc(C(=O)N(C)[C@@H](C)Cc3ccccc3)o1)C(C)(C)CCC2(C)C`, the inhibition at 10 µM is 59%.

For `Cc1cc2c(cc1Cc1ccc(C(=O)N[C@@H](C)C(O)c3ccccc3)o1)C(C)(C)CCC2(C)C` (stereo partly shown), the inhibition at 10 µM was 63%.

Consider `Cc1cc2c(cc1Cc1ccc(C(=O)NC(C)(C)C(=O)OC(C)(C)C)o1)C(C)(C)CCC2(C)C`, for which the inhibition at 10 µM was determined as 75%.

Turning to `Cc1cc2c(cc1Cc1ccc(C(=O)NC3CCCCC3C3CCCCC3)o1)C(C)(C)CCC2(C)C` (stereo not shown), the inhibition at 10 µM was determined as 13%.

For `COCCN1CCN(C(=O)c2ccc(Cc3cc4c(cc3C)C(C)(C)CCC4(C)C)o2)CC1`, the inhibition at 10 µM came to 81%.

As to `Cc1cc2c(cc1Cc1ccc(C(=O)N3CCc4[nH]c5c(F)cccc5c4C3)o1)C(C)(C)CCC2(C)C`, the inhibition at 10 µM worked out at 46%.

Regarding `COc1ccccc1C1CCN(C(=O)c2ccc(Cc3cc4c(cc3C)C(C)(C)CCC4(C)C)o2)CC1`, the inhibition at 10 µM is 63%.

Regarding `COc1ccc(CCN(CC(C)c2ccccc2)C(=O)c2ccc(Cc3cc4c(cc3C)C(C)(C)CCC4(C)C)o2)cc1OC` (stereo not shown), the inhibition at 10 µM came to 72%.

On to `Cc1cc2c(cc1Cc1ccc(C(=O)N3CCC(NC(=O)OC(C)(C)C)CC3)o1)C(C)(C)CCC2(C)C`, for which the inhibition at 10 µM was determined as 67%.

Turning to `Cc1cc2c(cc1Cc1ccc(C(=O)NCCN3CCN(c4nccc(NCC5CCCO5)n4)CC3)o1)C(C)(C)CCC2(C)C` (stereo not shown), the inhibition at 10 µM was found to be 96%.

`CCOC(CN(Cc1ccncc1)C(=O)c1ccc(Cc2cc3c(cc2C)C(C)(C)CCC3(C)C)o1)OCC`: the inhibition at 10 µM came out at 31%.

On to `CCOC(=O)CC1C(=O)NCCN1C(=O)c1ccc(Cc2cc3c(cc2C)C(C)(C)CCC3(C)C)o1` (stereo not shown), for which the inhibition at 10 µM worked out at 98%.

With `CCN(CC)CCN1CCN(C(=O)c2ccc(Cc3cc4c(cc3C)C(C)(C)CCC4(C)C)o2)CC1`, the inhibition at 10 µM was 98%.

In the case of `Cc1cc2c(cc1Cc1ccc(C(=O)N(C)CC(O)CO)o1)C(C)(C)CCC2(C)C` (stereo not shown), the inhibition at 10 µM is 69%.

As to `CCOC(CNC(=O)c1ccc(Cc2cc3c(cc2C)C(C)(C)CCC3(C)C)o1)OCC`, the inhibition at 10 µM was 100%.

In the case of `CCC(C)CN(CCO)C(=O)c1ccc(Cc2cc3c(cc2C)C(C)(C)CCC3(C)C)o1` (stereo not shown), the inhibition at 10 µM worked out at 101%.

Take `C=CCN(C(=O)c1ccc(Cc2cc3c(cc2C)C(C)(C)CCC3(C)C)o1)C1CCCC1`: the inhibition at 10 µM was 95%.

As to `CCCCN(CC)CCNC(=O)c1ccc(Cc2cc3c(cc2C)C(C)(C)CCC3(C)C)o1`, the inhibition at 10 µM was found to be 101%.

Consider `CCCN(C(=O)c1ccc(Cc2cc3c(cc2C)C(C)(C)CCC3(C)C)o1)C(C)CC` (stereo not shown), for which the inhibition at 10 µM turned out to be 94%.

Take `Cc1cc2c(cc1Cc1ccc(C(=O)NC(CO)(CO)CO)o1)C(C)(C)CCC2(C)C`: the inhibition at 10 µM amounted to 13%.

In the case of `Cc1cc2c(cc1Cc1ccc(C(=O)N3CCC3)o1)C(C)(C)CCC2(C)C`, the inhibition at 10 µM turned out to be 63%.

In the case of `Cc1cc2c(cc1Cc1ccc(C(=O)N(Cc3ccco3)C3CC(=O)N(Cc4ccccc4)C3=O)o1)C(C)(C)CCC2(C)C` (stereo not shown), the inhibition at 10 µM is 20%.

As to `Cc1cc2c(cc1Cc1ccc(C(=O)N3CCCC3C(O)(c3ccccc3)c3ccccc3)o1)C(C)(C)CCC2(C)C` (stereo not shown), the inhibition at 10 µM is 31%.

With `Cc1cc2c(cc1Cc1ccc(C(=O)N3CCN(C(=O)C(c4ccccc4)c4ccccc4)CC3)o1)C(C)(C)CCC2(C)C`, the inhibition at 10 µM came out at 36%.

As for `Cc1cc2c(cc1Cc1ccc(C(=O)N3CCN(C(c4ccccc4)c4ccccc4)CC3)o1)C(C)(C)CCC2(C)C`, the inhibition at 10 µM is 33%.

Regarding `CC1(C)CCC(C)(C)c2cc(Cc3ccc(C(=O)NC4c5ccccc5-c5ccccc54)o3)ccc21`, the inhibition at 10 µM came out at 53%.

The test is the same for the next values; noted with them: 1 h, substrate remaining; 10 uM compound; closer to zero = closer to 100% inhibition; read-out: S%R 10 uM mGnRHR.
For `Cc1cc2c(cc1Cc1ccc(C(=O)NCCC3CCCN3C)o1)C(C)(C)CCC2(C)C` (stereo not shown) [Compound 456], the remaining activity at 10 µM is -12%.

As for `Cc1cc2c(cc1Cc1ccc(C(=O)NCCc3cccnc3)o1)C(C)(C)CCC2(C)C` [Compound 457], the remaining activity at 10 µM was -3%.

Consider `Cc1cc2c(cc1Cc1ccc(C(=O)NCCNCCNc3ccccc3)o1)C(C)(C)CCC2(C)C` [Compound 458], for which the remaining activity at 10 µM amounted to 29%.

Turning to `Cc1cc2c(cc1Cc1ccc(C(=O)NC(CCCNC(N)N)C(=O)O)o1)C(C)(C)CCC2(C)C` (stereo not shown) [Compound 459], the remaining activity at 10 µM came to 53%.

Regarding `Cc1cc2c(cc1Cc1ccc(C(=O)NCCCN3CCOCC3)o1)C(C)(C)CCC2(C)C` [Compound 460], the remaining activity at 10 µM is -4%.

`Cc1cc2c(cc1Cc1ccc(C(=O)NCCc3ccc(S(N)(=O)=O)cc3)o1)C(C)(C)CCC2(C)C` [Compound 461]: the remaining activity at 10 µM stood at 53%.

`Cc1cc2c(cc1Cc1ccc(C(=O)NCCCN(C)c3ccccc3)o1)C(C)(C)CCC2(C)C` [Compound 462]: the remaining activity at 10 µM is 0%.

With `Cc1cc2c(cc1Cc1ccc(C(=O)N3CCC(C(N)=O)CC3)o1)C(C)(C)CCC2(C)C` [Compound 463], the remaining activity at 10 µM was -5%.

For the molecule `Cc1cc2c(cc1Cc1ccc(C(=O)NCC(=O)Nc3ccc([N+](=O)[O-])cc3)o1)C(C)(C)CCC2(C)C` [Compound 464], the remaining activity at 10 µM was 7%.

For `Cc1cc2c(cc1Cc1ccc(C(=O)NCCNCCN3CCOCC3)o1)C(C)(C)CCC2(C)C` [Compound 465], the remaining activity at 10 µM turned out to be 32%.

`Cc1cc2c(cc1Cc1ccc(C(=O)NC3CCCCC3Nc3nccc(NCC4CCCO4)n3)o1)C(C)(C)CCC2(C)C` (stereo not shown) [Compound 466]: the remaining activity at 10 µM came to 30%.

Consider `Cc1cc2c(cc1Cc1ccc(C(=O)NCCc3ccc4c(c3)OCO4)o1)C(C)(C)CCC2(C)C` [Compound 467], for which the remaining activity at 10 µM is -1%.

For `Cc1cc2c(cc1Cc1ccc(C(=O)NCCCn3ccnc3)o1)C(C)(C)CCC2(C)C` [Compound 468], the remaining activity at 10 µM was -10%.

`Cc1cc2c(cc1Cc1ccc(C(=O)NCCCc3ccccc3)o1)C(C)(C)CCC2(C)C` [Compound 469]: the remaining activity at 10 µM is -9%.

Turning to `Cc1cc2c(cc1Cc1ccc(C(=O)NCCc3c[nH]c4ccccc34)o1)C(C)(C)CCC2(C)C` [Compound 470], the remaining activity at 10 µM amounted to 6%.

In the case of `Cc1cc2c(cc1Cc1ccc(C(=O)NCCc3cccs3)o1)C(C)(C)CCC2(C)C` [Compound 471], the remaining activity at 10 µM was -4%.

The test is the same for the next values; noted with them: read-out: % Inhib. @ 10 uM mGnRH.
`Cc1cc2c(cc1Cc1ccc(C(=O)N3CCC(O)(O)CC3)o1)C(C)(C)CCC2(C)C`: the inhibition at 10 µM is 22%.

In the case of `Cc1cc2c(cc1Cc1ccc(C(=O)N3CCC4(CC3)OCCCO4)o1)C(C)(C)CCC2(C)C`, the inhibition at 10 µM is 99%.

Consider `Cc1cc2c(cc1Cc1ccc(C(=O)N[C@H]3CN4CCC3CC4)o1)C(C)(C)CCC2(C)C`, for which the inhibition at 10 µM stood at 12%.

(Values after US7101878B1 (Agouron Pharmaceuticals, Inc., priority 1998, dated 2006).)
